Values quoted from earlier work in PMC10534093 (Food Chemistry: X, 2023).

Tested on: α-glucosidase
Settings: Table 1; ref BIOPEP-UWM and AHTPDB
In the case of IQAEGGLT [reference compound], the “Known activity in the database” value is listed as “Alpha-glucosidase inhibitor”. In the case of IVTVEGGLSVISPKW, the “Known activity in the database” value is given as “Alpha-glucosidase inhibitor”. In the case of TFSEYPPLGR, the “Known activity in the database” value is given as “Alpha-glucosidase inhibitor”.

Tested on: ACE
Settings: Table 2; ref BIOPEP-UWM and AHTPDB
In the case of DRDSYNLHPGDAQRIPAGTTY, the “Known activity in the database” value is given as “ACE inhibitor”. In the case of DRPSIGNLAGANSLLNALP, the “Known activity in the database” value is listed as “ACE inhibitor”. For EGEQPRPFPFP, the “Known activity in the database” value is listed as “ACE inhibitor”. For IGTLAGANSLLNALP, the “Known activity in the database” value is given as “ACE inhibitor”. For NNPFKFLVPPQESQKR, the “Known activity in the database” value is listed as “ACE inhibitor”. In the case of PFSFLVPPQESQR, the “Known activity in the database” value is listed as “ACE inhibitor”. For PIYSNKLGKFF, the “Known activity in the database” value is listed as “ACE inhibitor”. For PLDLTSFVLH, the “Known activity in the database” value is listed as “ACE inhibitor”. In the case of PSEVEAVFKPLGPEVGELRV, the “Known activity in the database” value is listed as “ACE inhibitor”. For PSSPFTDLWDPRRVGD, the “Known activity in the database” value is listed as “ACE inhibitor”. For QIGLF [reference compound], the “Known activity in the database” value is given as “ACE inhibitor”. For RPSIGNLAGANSLLNALP, the “Known activity in the database” value is listed as “ACE inhibitor”. In the case of RPSIGNLAGANSLLNALPE, the “Known activity in the database” value is listed as “ACE inhibitor”. In the case of TPMIGTLAGANSLLNALP, the “Known activity in the database” value is given as “ACE inhibitor”. For VISQIPSQVQELAFPG, the “Known activity in the database” value is listed as “ACE inhibitor”. For WGPLVNPESQQGSPR, the “Known activity in the database” value is given as “ACE inhibitor”. For YEAGVVPPGARFEPPR, the “Known activity in the database” value is listed as “ACE inhibitor”.

Molecular target: α-glucosidase
Settings: ref Zhang, Wang, & Li, 2016
In the case of NSPR, the “IC50 against α-glucosidase” value is given as 93 µg/mL.

Tested on: ACE
Settings: ref Kheeree et al., 2020
For GPAGPAGL, the “IC50 against ACE” value is given as 8 µg/mL.

Same assay, conditions: ref Sitanggang, Putri, Palupi, Hatzakis, & Budijanto, 2021
For IPPGVPYWT, the “IC50 against ACE” value is given as 400 µg/mL.

Same assay, conditions: ref Tu et al., 2018
In the case of NMAINPSKENLCSTFCK, the “IC50 against ACE” value is given as 2830 µg/mL.

Same assay, conditions: reference peptide; ref Yu, Zhao, Liu, Lu, & Chen, 2011
For QIGLF [reference compound], the “IC50 against ACE” value is given as 420 µg/mL.
